Measured values published in ChEMBL document CHEMBL1909046, “DrugMatrix in vitro pharmacology data”.

What was measured:
[1] = molecular target: T1, Type-2 angiotensin II receptor (Homo sapiens, UniProt P50052); assay type: cell-based; details: cho-k1; note: in other assays of this panel Not Active means under 50% inhibition at 10 µM
T1 sequence (P50052 whole entry): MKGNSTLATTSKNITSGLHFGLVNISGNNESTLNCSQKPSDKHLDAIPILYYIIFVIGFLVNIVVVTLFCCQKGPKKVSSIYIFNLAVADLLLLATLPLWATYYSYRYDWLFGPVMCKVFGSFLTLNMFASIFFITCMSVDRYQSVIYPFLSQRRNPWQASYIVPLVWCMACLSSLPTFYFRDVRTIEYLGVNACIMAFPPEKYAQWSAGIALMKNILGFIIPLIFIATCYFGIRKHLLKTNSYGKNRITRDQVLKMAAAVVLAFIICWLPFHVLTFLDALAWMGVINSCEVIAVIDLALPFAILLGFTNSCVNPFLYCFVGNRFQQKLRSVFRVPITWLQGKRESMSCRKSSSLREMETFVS

[2] = DRUGMATRIX: Atrial Natriuretic Factor (ANF) radioligand binding (ligand: [125I] ANF (rat)); assay type: cell membranes, Cavia porcellus, Dunkin-Hartley, Adrenal gland, Membrane; details: Not Active = under 50% inhibition at 10 µM
[3] = molecular target: T2, 3-hydroxy-3-methylglutaryl-coenzyme A reductase (Homo sapiens, UniProt P04035); set-up: species or system Escherichia coli;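 note: enzyme inhibition assay of HMG-CoA reductase using radiolabeled [14C]HMG-CoA as substrate; in other assays of this panel Not Active means under 50% inhibition at 10 µM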
T2 sequence (P04035 whole entry): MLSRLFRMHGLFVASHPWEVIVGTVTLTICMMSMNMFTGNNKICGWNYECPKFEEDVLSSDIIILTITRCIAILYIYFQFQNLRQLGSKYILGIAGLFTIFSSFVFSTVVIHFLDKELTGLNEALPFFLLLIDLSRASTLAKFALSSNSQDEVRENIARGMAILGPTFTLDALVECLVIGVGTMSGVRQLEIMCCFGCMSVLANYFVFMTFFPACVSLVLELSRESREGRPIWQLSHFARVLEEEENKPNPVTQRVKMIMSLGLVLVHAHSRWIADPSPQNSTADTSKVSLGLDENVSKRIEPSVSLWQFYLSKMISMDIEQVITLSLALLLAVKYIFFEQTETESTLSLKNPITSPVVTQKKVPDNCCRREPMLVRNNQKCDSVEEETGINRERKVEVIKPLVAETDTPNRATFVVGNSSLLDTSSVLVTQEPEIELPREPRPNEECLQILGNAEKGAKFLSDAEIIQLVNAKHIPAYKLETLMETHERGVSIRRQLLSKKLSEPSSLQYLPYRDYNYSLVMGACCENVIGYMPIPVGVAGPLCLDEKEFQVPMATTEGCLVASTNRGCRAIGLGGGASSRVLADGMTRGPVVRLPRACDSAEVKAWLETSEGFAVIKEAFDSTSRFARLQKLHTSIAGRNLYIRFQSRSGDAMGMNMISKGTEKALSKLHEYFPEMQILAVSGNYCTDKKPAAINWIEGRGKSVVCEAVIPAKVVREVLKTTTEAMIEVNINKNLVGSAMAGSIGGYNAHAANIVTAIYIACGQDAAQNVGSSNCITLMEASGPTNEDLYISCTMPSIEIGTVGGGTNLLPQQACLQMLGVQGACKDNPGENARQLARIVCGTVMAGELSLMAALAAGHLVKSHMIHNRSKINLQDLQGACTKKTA

[4] = DRUGMATRIX: Interleukin IL-1 radioligand binding (ligand: [125I] interleukin 1beta); assay type: cell membranes, Membrane; details: nih3t3; Not Active = under 50% inhibition at 10 µM
[5] = DRUGMATRIX: Leukotriene, BLT (LTB4) radioligand binding (ligand: [3H]LTB4); assay type: cell membranes, Membrane; details: u-937; Not Active = under 50% inhibition at 10 µM
[6] = DRUGMATRIX: Nicotinic Acetylcholine radioligand binding (ligand: [125I] Epibatidine); assay type: cell membranes, Membrane; details: imr-32; Not Active = under 50% inhibition at 10 µM
[7] = molecular target: Kappa-type opioid receptor (Homo sapiens, UniProt P41145); test: DRUGMATRIX: Opiate kappa (OP2, KOP) radioligand binding (ligand: [3H] Diprenorphine); assay type: cell membranes, HEK293, Membrane; details: hek293; Not Active = under 50% inhibition at 10 µM
Interstitial collagenase = molecular target: T3, Interstitial collagenase (Homo sapiens, UniProt P03956); test: biochemical; assay type: tissue-based, Rheumatoid synovial fibroblasts;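 note: MMP-1 enzyme inhibition assay using a peptide substrate; in other assays of this panel Not Active means under 50% inhibition at 10 µM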
T3 sequence (P03956 whole entry): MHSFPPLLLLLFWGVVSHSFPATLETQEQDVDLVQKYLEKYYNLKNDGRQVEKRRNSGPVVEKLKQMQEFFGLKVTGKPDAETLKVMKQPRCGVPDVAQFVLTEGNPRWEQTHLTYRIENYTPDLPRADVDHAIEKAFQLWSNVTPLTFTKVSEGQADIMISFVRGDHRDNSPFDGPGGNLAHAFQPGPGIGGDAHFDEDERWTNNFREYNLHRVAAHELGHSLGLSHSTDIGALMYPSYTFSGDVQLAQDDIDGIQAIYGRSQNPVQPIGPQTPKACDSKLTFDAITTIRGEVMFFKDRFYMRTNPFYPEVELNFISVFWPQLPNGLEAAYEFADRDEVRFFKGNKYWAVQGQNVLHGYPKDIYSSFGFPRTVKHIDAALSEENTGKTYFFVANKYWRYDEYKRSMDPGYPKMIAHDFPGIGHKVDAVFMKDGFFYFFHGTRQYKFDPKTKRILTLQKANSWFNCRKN

Chain of Kappa-type opioid receptor (P41145 whole entry): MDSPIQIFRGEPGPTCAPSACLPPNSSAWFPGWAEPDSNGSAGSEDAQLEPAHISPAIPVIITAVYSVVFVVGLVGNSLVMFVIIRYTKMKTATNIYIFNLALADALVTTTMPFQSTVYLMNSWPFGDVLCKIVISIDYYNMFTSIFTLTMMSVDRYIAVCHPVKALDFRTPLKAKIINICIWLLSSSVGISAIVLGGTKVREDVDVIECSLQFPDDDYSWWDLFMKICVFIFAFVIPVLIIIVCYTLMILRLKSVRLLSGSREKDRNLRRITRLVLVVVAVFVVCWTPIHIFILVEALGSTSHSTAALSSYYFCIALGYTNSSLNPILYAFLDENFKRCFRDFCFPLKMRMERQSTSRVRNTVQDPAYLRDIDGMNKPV

Cc1nccn1CC1CCc2c(c3ccccc3n2C)C1=O (configuration not stated) [ONDANSETRON]
Not Active: IC50 [1] | IC50 [2] | Ki [2] | IC50 [3] | IC50 [4] | Ki [4] | IC50 [5] | Ki [5] | IC50 [6] | Ki [6] | IC50 [7] | IC50 (Interstitial collagenase)

CCn1cc(C(=O)O)c(=O)c2cc(F)c(N3CCN(C)CC3)cc21 [PEFLOXACIN]
Not Active: IC50 [1] | IC50 [2] | Ki [2] | IC50 [3] | IC50 [4] | Ki [4] | IC50 [5] | Ki [5] | IC50 [6] | Ki [6] | IC50 [7] | IC50 (Interstitial collagenase)

CCCCOc1ccc(OCCCN2CCOCC2)cc1 [PRAMOXINE]
Not Active: IC50 [1] | IC50 [2] | Ki [2] | IC50 [3] | IC50 [4] | Ki [4] | IC50 [5] | Ki [5] | IC50 [6] | Ki [6] | IC50 [7] | IC50 (Interstitial collagenase)

O=C(C1CCCCC1)N1CC(=O)N2CCc3ccccc3C2C1 (configuration not stated) [PRAZIQUANTEL]
Not Active: IC50 [1] | IC50 [2] | Ki [2] | IC50 [3] | IC50 [4] | Ki [4] | IC50 [5] | Ki [5] | IC50 [6] | Ki [6] | IC50 [7] | IC50 (Interstitial collagenase)

CCN(CC)CCOC(=O)c1ccc(N)cc1 [PROCAINE]
Not Active: IC50 [1] | IC50 [2] | Ki [2] | IC50 [3] | IC50 [4] | Ki [4] | IC50 [5] | Ki [5] | IC50 [6] | Ki [6] | IC50 [7] | IC50 (Interstitial collagenase)

CCCN(CCC)C(=O)C(CCC(=O)O)NC(=O)c1ccccc1 (configuration not stated) [PROGLUMIDE]
Not Active: IC50 [1] | IC50 [2] | Ki [2] | IC50 [3] | IC50 [4] | Ki [4] | IC50 [5] | Ki [5] | IC50 [6] | Ki [6] | IC50 [7] | IC50 (Interstitial collagenase)

NC(=O)c1cnccn1 [PYRAZINAMIDE]
Not Active: IC50 [1] | IC50 [2] | Ki [2] | IC50 [3] | IC50 [4] | Ki [4] | IC50 [5] | Ki [5] | IC50 [6] | Ki [6] | IC50 [7] | IC50 (Interstitial collagenase)

OC(CCN1CCCCC1)(c1ccccc1)C1CCCCC1 (configuration not stated) [TRIHEXYPHENIDYL]
Not Active: IC50 [1] | IC50 [2] | Ki [2] | IC50 [3] | IC50 [4] | Ki [4] | IC50 [5] | Ki [5] | IC50 [6] | Ki [6] | IC50 [7] | IC50 (Interstitial collagenase)

Cc1cc2cc3c(C)cc(=O)oc3c(C)c2o1 [TRIOXSALEN]
Not Active: IC50 [1] | IC50 [2] | Ki [2] | IC50 [3] | IC50 [4] | Ki [4] | IC50 [5] | Ki [5] | IC50 [6] | Ki [6] | IC50 [7] | IC50 (Interstitial collagenase)

CCCC(CCC)C(=O)O [VALPROIC ACID]
Not Active: IC50 [1] | IC50 [2] | Ki [2] | IC50 [3] | IC50 [4] | Ki [4] | IC50 [5] | Ki [5] | IC50 [6] | Ki [6] | IC50 [7] | IC50 (Interstitial collagenase)

CCC1=C[C@@H]2CN(C1)Cc1c([nH]c3ccccc13)[C@@](C(=O)OC)(c1cc3c(cc1OC)N(C)[C@H]1[C@@](O)(C(=O)OC)[C@H](OC(C)=O)[C@]4(CC)C=CCN5CC[C@]31[C@@H]54)C2 [VINORELBINE]
Not Active: IC50 [1] | IC50 [2] | Ki [2] | IC50 [3] | IC50 [4] | Ki [4] | IC50 [5] | Ki [5] | IC50 [6] | Ki [6] | IC50 [7] | IC50 (Interstitial collagenase)
